In PubChem BioAssay (NCI) one finds GI50 and TGI data, which are given here for nine compounds.

Molecules are shown by their SMILES.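 Step 1: Grow cells in 96-well plates. Step 2: Expose to compound for 48 hours at 5 concentrations. Step 3: Interpolate endpoints linearly; if unreached, use highest concentration. Abbreviation: GI50, concentration required for 50% inhibition of growth. TGI: concentration producing complete growth inhibition.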

Test systems include HL-60(TB) leukemia; HOP-62 NSCLC; HT29 colon; KM12 colon; MDA-MB-231 breast; NCI-H226 lung; SF-268 CNS; SF-295 CNS.
Common to all, as to experiment: DTP human tumour cell line panel, 48 h

With `CC(C)c1[nH]nc2c1N=C(c1ccccc1Cl)c1cc([N+](=O)[O-])ccc1N2`, the GI50 (in general, the concentration that inhibits growth by half) in the assay with HL-60(TB) leukemia was 4.99 µM; in the assay with HOP-62 NSCLC, 6.58 µM; with HT29 colon, 8.72 µM; in the assay with KM12 colon it was 1.79 µM; with MDA-MB-231 breast it was 7.92 µM; with NCI-H226 lung, 5.09 µM. Moreover, the GI50 is 7.92 µM with SF-268 CNS and 8.52 µM in the assay on SF-295 CNS. Also, the TGI – broadly, the concentration giving total growth inhibition – is 12.2 µM in the assay on HL-60(TB) leukemia; above 25 µM with HOP-62 NSCLC; above 22.2 µM in the assay on HT29 colon; 6.31 µM in the assay with KM12 colon; above 25 µM in the assay with MDA-MB-231 breast; 16.1 µM in the assay with NCI-H226 lung. The TGI in the assay with SF-268 CNS and in the assay with SF-295 CNS was above 25 µM each time.

Take `COc1ccc(-c2nccn2-c2ccc(OC)cc2)cc1`: the GI50 in the assay with HL-60(TB) leukemia was 14.2 µM; in the assay on HOP-62 NSCLC, 22 µM; with HT29 colon, 13 µM; in the assay with KM12 colon, 17.9 µM; in the assay on MDA-MB-231 breast, 16.4 µM; in the assay with NCI-H226 lung, 18.6 µM. The figures for the GI50 in the assay on SF-268 CNS and in the assay on SF-295 CNS were 22.9 µM and 21 µM, respectively. The TGI in the assay on HL-60(TB) leukemia was 34.2 µM; in the assay on HOP-62 NSCLC, 74.4 µM; in the assay with HT29 colon, 32.9 µM; in the assay on KM12 colon, 65.3 µM; in the assay on MDA-MB-231 breast it was 57.5 µM; with NCI-H226 lung, above 70.8 µM. Further, the TGI in the assay with SF-268 CNS stood at 74.4 µM; in the assay with SF-295 CNS, 74.2 µM.

With `O=C(NCc1ccc(Cn2c(=O)sn(-c3ccccc3)c2=O)cc1)OCc1ccc2cccc(O)c2n1`, the GI50 with HL-60(TB) leukemia was 1.24 µM; in the assay with HOP-62 NSCLC, 1.55 µM; with HT29 colon, 0.556 µM; in the assay on KM12 colon it was 1.54 µM; with MDA-MB-231 breast, 1.19 µM; with NCI-H226 lung it was 1.27 µM. The GI50 was 1.55 µM in the assay with SF-268 CNS and 2.14 µM in the assay on SF-295 CNS. Further, the TGI with HL-60(TB) leukemia was above 20.5 µM; in the assay on HOP-62 NSCLC, 3.52 µM; in the assay on HT29 colon it was 2.08 µM; in the assay on KM12 colon, 3.02 µM; with MDA-MB-231 breast, 2.55 µM; in the assay with NCI-H226 lung it was 2.77 µM. Also, the TGI was determined as 3.04 µM in the assay with SF-268 CNS and 5.82 µM in the assay with SF-295 CNS.

With `O=C(Nc1cc(Nc2ncccc2-c2ncnc3nc[nH]c23)ccc1F)c1cc(C(F)(F)F)cc(C(F)(F)F)c1`, the GI50 was 0.439 µM in the assay with HL-60(TB) leukemia; 1.15 µM in the assay on HOP-62 NSCLC; 0.446 µM in the assay with HT29 colon; 1.53 µM in the assay with KM12 colon; 1.04 µM in the assay on MDA-MB-231 breast; 2.74 µM in the assay with NCI-H226 lung. Besides, the results for the GI50 in the assay on SF-268 CNS and in the assay with SF-295 CNS were 3.17 µM and 1.73 µM, respectively. Besides, the TGI is 8.44 µM in the assay with HL-60(TB) leukemia; above 10 µM with HOP-62 NSCLC; 4.03 µM with HT29 colon; 4.03 µM in the assay with KM12 colon; 2.79 µM in the assay on MDA-MB-231 breast; above 10 µM with NCI-H226 lung. Further, the figures for the TGI in the assay on SF-268 CNS and with SF-295 CNS were above 10 µM and 4.01 µM, respectively.

For the compound `COC(=O)c1cc2c(o1)-c1nccc3c1c(nc1ccccc13)C2=O`, the GI50 is 2 µM with HL-60(TB) leukemia; 1.4 µM in the assay on HOP-62 NSCLC; 8.01 µM with HT29 colon; 3.77 µM with KM12 colon; 5.1 µM in the assay with MDA-MB-231 breast; 8.08 µM in the assay on NCI-H226 lung. The GI50 with SF-268 CNS is 2.82 µM; in the assay on SF-295 CNS, 4.51 µM. For the same compound, the concentration for total growth inhibition (TGI) with HL-60(TB) leukemia was determined as 4.76 µM; in the assay with HOP-62 NSCLC, 11 µM; in the assay on HT29 colon it was 24.8 µM; in the assay on KM12 colon it was 16.7 µM; in the assay on MDA-MB-231 breast it was 39.5 µM; in the assay with NCI-H226 lung it was 25.4 µM. Besides, the results for the TGI in the assay on SF-268 CNS and in the assay with SF-295 CNS were 24.2 µM and 18.3 µM, respectively.

Regarding `CCN(CC)CCCCCCNc1cccc2cc(Br)cnc12`, the GI50 in the assay on HL-60(TB) leukemia was 2 µM; in the assay with HOP-62 NSCLC, 10 µM; in the assay on HT29 colon, 1.88 µM; in the assay on KM12 colon it was 3.56 µM; in the assay on MDA-MB-231 breast, 1.59 µM; in the assay on NCI-H226 lung, 11.8 µM. The figures for the GI50 with SF-268 CNS and in the assay with SF-295 CNS were 10.9 µM and 2.88 µM, respectively. In addition, the TGI with HL-60(TB) leukemia worked out at 4.65 µM; in the assay on HOP-62 NSCLC, 23.4 µM; in the assay with HT29 colon, 4.32 µM; with KM12 colon, 14.3 µM; in the assay with MDA-MB-231 breast it was 4.64 µM; in the assay with NCI-H226 lung, 27 µM. Further, the TGI was 27.5 µM in the assay with SF-268 CNS and 10 µM with SF-295 CNS.

In the case of `ClCCN(CCCl)c1ccc(CNc2ccccc2)cc1`, the GI50 in the assay with HL-60(TB) leukemia was 2.44 µM; in the assay on HOP-62 NSCLC, 6.32 µM; in the assay with HT29 colon, 20.4 µM; in the assay on KM12 colon, 24.7 µM; with MDA-MB-231 breast, 28.5 µM; with NCI-H226 lung, 10.3 µM. Also, the GI50 with SF-268 CNS is 4.25 µM; with SF-295 CNS it was 3.16 µM. For the same compound, the TGI with HL-60(TB) leukemia was 54 µM; in the assay with HOP-62 NSCLC it was above 100 µM; in the assay with HT29 colon it was above 100 µM; in the assay on KM12 colon, above 100 µM; in the assay on MDA-MB-231 breast it was above 100 µM; with NCI-H226 lung, 28.2 µM. In addition, the TGI in the assay with SF-268 CNS and with SF-295 CNS was above 100 µM each time.

Consider `Nc1cc2c(cc1Br)[nH]c(=O)c1ccccc12`, for which the GI50 in the assay with HL-60(TB) leukemia was 10.8 µM; with HOP-62 NSCLC it was 3.71 µM; in the assay with HT29 colon, 3.46 µM; in the assay with KM12 colon, 3.4 µM; in the assay on MDA-MB-231 breast, 3.37 µM; in the assay on NCI-H226 lung, 5.15 µM. Moreover, the figures for the GI50 with SF-268 CNS and with SF-295 CNS were 5.9 µM and 10.2 µM, respectively. Also, the TGI in the assay with HL-60(TB) leukemia is 54.3 µM; with HOP-62 NSCLC, 13.3 µM; with HT29 colon it was 10.8 µM; with KM12 colon, 11.2 µM; in the assay on MDA-MB-231 breast, 54.9 µM; in the assay with NCI-H226 lung, 27.5 µM. For the same compound, the TGI in the assay on SF-268 CNS is 44.9 µM; in the assay with SF-295 CNS, 38.4 µM.

For `NNCCc1ccc(NC(=O)CCCc2ccc(C(=O)Nc3ccccc3N)cc2)cc1`, the GI50 was 3.34 µM with HL-60(TB) leukemia; 10.8 µM in the assay with HOP-62 NSCLC; 4.07 µM in the assay with HT29 colon; 29.1 µM in the assay on KM12 colon; 17.4 µM in the assay with MDA-MB-231 breast; 16 µM in the assay on NCI-H226 lung. For the same compound, the values for the GI50 in the assay on SF-268 CNS and with SF-295 CNS were 5.97 µM and 13.3 µM, respectively. Further, the TGI in the assay with HL-60(TB) leukemia was 25 µM; in the assay on HOP-62 NSCLC, above 100 µM; with HT29 colon, above 100 µM; in the assay on KM12 colon, above 100 µM; with MDA-MB-231 breast, above 100 µM; with NCI-H226 lung, above 100 µM. Besides, the TGI in the assay with SF-268 CNS and in the assay on SF-295 CNS was above 100 µM each time.
